The values that follow come from patent US20160143971A1, “COMBINATION THERAPY FOR PROSTATE CANCER USING BOTANICAL COMPOSITIONS AND DOCETAXEL” (GENYOUS BIOMED INTERNATIONAL, priority 2013, published 2016).

Series [1] relates to LNCaP (androgen-sensitive) human prostate cancer tumors SRCX. As to the kind of experiment: Growth of LNCaP prostate cancer tumors SRCX in mice. Type of series: in vivo. The settings on record: 3 weeks. How it is done: LNCaP prostate cancer was treated for 3 weeks according to the following regimen.
The conditions of series [2]: cited from earlier work.
For series [3], the system named is androgen-independent metastatic prostate cancer. The settings on record: TAX 327 phase III study, patients; cited from earlier work.
The test system of a further series is PSA. The conditions noted are these: cited from earlier work.
The test system of series [4] is human prostate cancer cells in culture. The settings on record: cited from earlier work.
Series [5] has as its system human prostate cancer cells in mouse xenografts. The settings on record: cited from earlier work.

Molecules are shown by their SMILES.

As for `CC(=O)O[C@@]12CO[C@@H]1C[C@H](O)[C@@]1(C)C(=O)[C@H](O)C3=C(C)[C@@H](OC(=O)[C@H](O)[C@@H](NC(=O)OC(C)(C)C)c4ccccc4)C[C@@](O)([C@@H](OC(=O)c4ccccc4)[C@H]21)C3(C)C` [Taxotere®, docetaxel], the “inhibition of growth of LNCaP tumors” value in series [1] (Aneustat 1652 mg/kg oral gavage QD x 21, Taxotere 10 mg/kg IP d=1, 8, 15, P<0.01) is “significantly inhibited growth”. Besides, in series [1] (Aneustat 1652 mg/kg oral, Taxotere 10 mg/kg IP), the “efficacy in tumor size reduction (FIG. 1)” value was “somewhat more effective”. For the same compound, in series [2], the “water solubility compared with paclitaxel” value was “more water soluble than paclitaxel”. In addition, in series [3], the overall response rate is 12%.

With `O=C1c2c(O)ccc(O)c2C(=O)c2c(NCCNCCO)ccc(NCCNCCO)c21` [mitoxantrone], the overall response rate in series [3] is 7%.

For the compound `COc1cc(CNC(=O)CCCC/C=C/C(C)C)ccc1O` [capsaicin], the PSA expression result in the series on PSA was “down-regulates PSA expression”. The anti-proliferative effect entry in series [4] and in series [5] was “profound anti-proliferative effect” throughout.
